Data as given in the NIST ThermoML archive (doi:10.1016/j.jct.2017.02.023).

Experiments:
[1] = xn = mol fraction of the nth substance listed; settings: 81.5 kPa, Liquid, Vibrating tube method
[2] = refractive index (Na D-line) (dimensionless); xn = mol fraction of the nth substance listed; settings: 81.5 kPa, Liquid, Standard Abbe refractometry

CNC1CCCCC1 [N-methylcyclohexylamine] + CC(C)O
Settings	mass density, 298.15 K [kg/m3]	mass density, 308.15 K [kg/m3]	mass density, 318.15 K [kg/m3]	mass density, 328.15 K [kg/m3]	refractive index, 298.15 K	refractive index, 308.15 K	refractive index, 318.15 K	refractive index, 328.15 K
[1], x2 = 0	865.2	856.57	847.67	838.68	–	–	–	–
[1], x2 = 0.159	860.12	851.49	842.65	833.57	–	–	–	–
[1], x2 = 0.2745	855.75	847.1	838.18	828.82	–	–	–	–
[1], x2 = 0.3856	850.26	841.55	832.63	823.19	–	–	–	–
[1], x2 = 0.4867	843.79	835.1	826.14	816.62	–	–	–	–
[1], x2 = 0.5738	836.95	828.24	819.27	809.59	–	–	–	–
[1], x2 = 0.6539	829.55	820.8	811.84	802	–	–	–	–
[1], x2 = 0.7253	822.01	813.27	804.23	794.36	–	–	–	–
[1], x2 = 0.7904	814.28	805.54	796.65	786.58	–	–	–	–
[1], x2 = 0.85	806.34	797.64	788.79	778.81	–	–	–	–
[1], x2 = 0.904	798.29	789.69	780.82	770.72	–	–	–	–
[1], x2 = 0.9541	789.83	781.27	772.4	762.26	–	–	–	–
[2], x2 = 0	–	–	–	–	1.45306	1.44812	1.4431	1.43809
[2], x2 = 0.159	–	–	–	–	1.4471	1.44293	1.43862	1.43418
[2], x2 = 0.2745	–	–	–	–	1.44224	1.43814	1.43386	1.42939
[2], x2 = 0.3856	–	–	–	–	1.43655	1.43263	1.42854	1.4242
[2], x2 = 0.4867	–	–	–	–	1.43021	1.42642	1.42248	1.41824
[2], x2 = 0.5738	–	–	–	–	1.42372	1.41996	1.41606	1.41185
[2], x2 = 0.6539	–	–	–	–	1.41688	1.41311	1.4092	1.40495
[2], x2 = 0.7253	–	–	–	–	1.41003	1.40629	1.40239	1.39812
[2], x2 = 0.7904	–	–	–	–	1.40314	1.39948	1.39565	1.39141
[2], x2 = 0.85	–	–	–	–	1.39619	1.39265	1.38892	1.38471
[2], x2 = 0.904	–	–	–	–	1.38928	1.38579	1.38209	1.37787
[2], x2 = 0.9541	–	–	–	–	1.38224	1.37859	1.37474	1.37035

CNC1CCCCC1 [N-methylcyclohexylamine] + CCC(C)O
Settings	mass density, 298.15 K [kg/m3]	mass density, 308.15 K [kg/m3]	mass density, 318.15 K [kg/m3]	mass density, 328.15 K [kg/m3]	refractive index, 298.15 K	refractive index, 308.15 K	refractive index, 318.15 K	refractive index, 328.15 K
[1], x2 = 0	865.2	856.57	847.67	838.68	–	–	–	–
[1], x2 = 0.1217	861.95	853.4	844.58	835.58	–	–	–	–
[1], x2 = 0.2333	858.47	849.82	840.98	831.86	–	–	–	–
[1], x2 = 0.3367	854.47	845.86	836.97	827.75	–	–	–	–
[1], x2 = 0.4323	850	841.4	832.5	823.2	–	–	–	–
[1], x2 = 0.5211	845.14	836.51	827.6	818.27	–	–	–	–
[1], x2 = 0.603	840.01	831.35	822.48	813.01	–	–	–	–
[1], x2 = 0.6803	834.52	825.88	817.02	807.46	–	–	–	–
[1], x2 = 0.7528	828.72	820.14	811.27	801.72	–	–	–	–
[1], x2 = 0.8202	822.7	814.18	805.33	795.72	–	–	–	–
[1], x2 = 0.8827	816.47	807.88	799.18	789.6	–	–	–	–
[1], x2 = 0.9426	809.83	801.25	792.58	782.94	–	–	–	–
[2], x2 = 0	–	–	–	–	1.45306	1.44812	1.4431	1.43809
[2], x2 = 0.1217	–	–	–	–	1.44931	1.44493	1.44047	1.43597
[2], x2 = 0.2333	–	–	–	–	1.44578	1.44144	1.43701	1.43258
[2], x2 = 0.3367	–	–	–	–	1.44206	1.43776	1.4334	1.42907
[2], x2 = 0.4323	–	–	–	–	1.43795	1.43374	1.42946	1.4252
[2], x2 = 0.5211	–	–	–	–	1.43338	1.42927	1.42503	1.42076
[2], x2 = 0.603	–	–	–	–	1.42849	1.42444	1.42021	1.41587
[2], x2 = 0.6803	–	–	–	–	1.42326	1.41926	1.41502	1.41065
[2], x2 = 0.7528	–	–	–	–	1.41783	1.41387	1.40967	1.40535
[2], x2 = 0.8202	–	–	–	–	1.41236	1.40841	1.40429	1.4001
[2], x2 = 0.8827	–	–	–	–	1.40689	1.40292	1.39886	1.39478
[2], x2 = 0.9426	–	–	–	–	1.40126	1.39719	1.39303	1.38886
